# Test results reported in PubChem BioAssay (NCI).
#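 Results reflect a 48-hour exposure of cells in 96-well plates to compound at five concentrations. TGI marks complete inhibition of growth.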
# How the values were obtained:
# Test in all cases: NCI anticancer screen, dose series, 48 h
# DU-145 prostate = test system: DU-145 prostate
# SF-295 CNS = test system: SF-295 CNS
# SNB-75 CNS = test system: SNB-75 CNS
# OVCAR-3 ovarian = test system: OVCAR-3 ovarian
# NCI-H460 lung = test system: NCI-H460 lung
# HOP-62 NSCLC = test system: HOP-62 NSCLC
# NCI/ADR-RES ovarian = test system: NCI/ADR-RES ovarian
# HCC-2998 colon = test system: HCC-2998 colon
# HT29 colon = test system: HT29 colon
# SK-MEL-28 melanoma = test system: SK-MEL-28 melanoma
# RXF 393 renal = test system: RXF 393 renal
# HOP-92 NSCLC = test system: HOP-92 NSCLC
# RPMI-8226 leukemia = test system: RPMI-8226 leukemia
# NCI-H522 lung = test system: NCI-H522 lung
# MALME-3M melanoma = test system: MALME-3M melanoma
# SR leukemia = test system: SR leukemia
# K-562 leukemia = test system: K-562 leukemia
# HS 578T breast = test system: HS 578T breast
# MCF7 breast = test system: MCF7 breast
# OVCAR-8 ovarian = test system: OVCAR-8 ovarian
# 786-0 renal = test system: 786-0 renal
# MOLT-4 leukemia = test system: MOLT-4 leukemia
# SF-539 CNS = test system: SF-539 CNS
# T-47D breast = test system: T-47D breast
# IGROV1 ovarian = test system: IGROV1 ovarian
# SF-268 CNS = test system: SF-268 CNS
# UACC-257 melanoma = test system: UACC-257 melanoma
# SNB-19 CNS = test system: SNB-19 CNS
# A549 NSCLC = test system: A549 NSCLC
# NCI-H23 lung = test system: NCI-H23 lung
# ACHN renal = test system: ACHN renal
# SW-620 colon = test system: SW-620 colon
# SN12C renal = test system: SN12C renal
# OVCAR-4 ovarian = test system: OVCAR-4 ovarian
# LOX IMVI melanoma = test system: LOX IMVI melanoma
# SK-OV-3 ovarian = test system: SK-OV-3 ovarian
# SK-MEL-2 melanoma = test system: SK-MEL-2 melanoma
# TK-10 renal = test system: TK-10 renal
# UACC-62 melanoma = test system: UACC-62 melanoma
# M14 melanoma = test system: M14 melanoma
# HCT-116 colon = test system: HCT-116 colon
# PC-3 prostate = test system: PC-3 prostate
# BT-549 breast = test system: BT-549 breast
# KM12 colon = test system: KM12 colon
# HCT-15 colon = test system: HCT-15 colon
# OVCAR-5 ovarian = test system: OVCAR-5 ovarian
# COLO 205 colon = test system: COLO 205 colon
# MDA-N = test system: MDA-N
# CCRF-CEM leukemia = test system: CCRF-CEM leukemia
# A498 renal = test system: A498 renal
# EKVX NSCLC = test system: EKVX NSCLC
# SK-MEL-5 melanoma = test system: SK-MEL-5 melanoma
# U251 CNS = test system: U251 CNS
# HL-60(TB) leukemia = test system: HL-60(TB) leukemia
# UO-31 renal = test system: UO-31 renal
# MDA-MB-231 breast = test system: MDA-MB-231 breast
# MDA-MB-435 = test system: MDA-MB-435
# NCI-H226 lung = test system: NCI-H226 lung
# CAKI-1 renal = test system: CAKI-1 renal
smiles,measurement,setting,value
Clc1cc(OC23CC4CC(CC(C4)C2)C3)nc(Cl)n1,TGI,DU-145 prostate,> 100 µM
same,TGI,SF-295 CNS,> 100 µM
same,TGI,SNB-75 CNS,> 100 µM
same,TGI,OVCAR-3 ovarian,> 100 µM
same,TGI,NCI-H460 lung,> 100 µM
same,TGI,HOP-62 NSCLC,> 100 µM
same,TGI,NCI/ADR-RES ovarian,> 100 µM
same,TGI,HCC-2998 colon,29.6 µM
same,TGI,HT29 colon,> 100 µM
same,TGI,SK-MEL-28 melanoma,> 100 µM
same,TGI,RXF 393 renal,85.8 µM
same,TGI,HOP-92 NSCLC,3.5 µM
same,TGI,RPMI-8226 leukemia,> 100 µM
same,TGI,NCI-H522 lung,> 100 µM
same,TGI,MALME-3M melanoma,> 100 µM
same,TGI,SR leukemia,48.4 µM
same,TGI,K-562 leukemia,> 100 µM
same,TGI,HS 578T breast,54.3 µM
same,TGI,MCF7 breast,> 100 µM
same,TGI,OVCAR-8 ovarian,> 100 µM
same,TGI,786-0 renal,> 100 µM
same,TGI,MOLT-4 leukemia,> 100 µM
same,TGI,SF-539 CNS,> 100 µM
same,TGI,T-47D breast,> 100 µM
same,TGI,IGROV1 ovarian,> 100 µM
same,TGI,SF-268 CNS,> 100 µM
same,TGI,UACC-257 melanoma,> 100 µM
same,TGI,SNB-19 CNS,> 100 µM
same,TGI,A549 NSCLC,> 100 µM
same,TGI,NCI-H23 lung,> 100 µM
same,TGI,ACHN renal,> 100 µM
same,TGI,SW-620 colon,> 100 µM
same,TGI,SN12C renal,> 100 µM
same,TGI,OVCAR-4 ovarian,> 100 µM
same,TGI,LOX IMVI melanoma,36.1 µM
same,TGI,SK-OV-3 ovarian,> 100 µM
same,TGI,SK-MEL-2 melanoma,> 100 µM
same,TGI,TK-10 renal,> 100 µM
same,TGI,UACC-62 melanoma,> 100 µM
same,TGI,M14 melanoma,> 100 µM
same,TGI,HCT-116 colon,> 100 µM
same,TGI,PC-3 prostate,> 100 µM
same,TGI,BT-549 breast,> 100 µM
same,TGI,KM12 colon,> 100 µM
same,TGI,HCT-15 colon,> 100 µM
same,TGI,OVCAR-5 ovarian,> 100 µM
same,TGI,COLO 205 colon,> 100 µM
same,TGI,MDA-N,> 100 µM
same,TGI,CCRF-CEM leukemia,86.2 µM
same,TGI,A498 renal,> 100 µM
same,TGI,EKVX NSCLC,> 100 µM
same,TGI,SK-MEL-5 melanoma,> 100 µM
same,TGI,U251 CNS,> 100 µM
same,TGI,HL-60(TB) leukemia,29.7 µM
same,TGI,UO-31 renal,87.5 µM
same,TGI,MDA-MB-231 breast,> 100 µM
same,TGI,MDA-MB-435,> 100 µM
O=[N+]([O-])c1ccc2c(c1)c1nn2CCCCOc2nn(c3ccc([N+](=O)[O-])cc23)CCCCO1,TGI,DU-145 prostate,> 100 µM
same,TGI,SF-295 CNS,> 100 µM
same,TGI,SNB-75 CNS,> 100 µM
same,TGI,NCI-H226 lung,> 100 µM
same,TGI,OVCAR-3 ovarian,> 100 µM
same,TGI,NCI-H460 lung,> 100 µM
same,TGI,HOP-62 NSCLC,> 100 µM
same,TGI,NCI/ADR-RES ovarian,> 100 µM
same,TGI,HCC-2998 colon,> 100 µM
same,TGI,SK-MEL-28 melanoma,> 100 µM
same,TGI,RXF 393 renal,> 100 µM
same,TGI,HOP-92 NSCLC,> 100 µM
same,TGI,RPMI-8226 leukemia,> 100 µM
same,TGI,NCI-H522 lung,> 100 µM
same,TGI,MALME-3M melanoma,> 100 µM
same,TGI,SR leukemia,> 100 µM
same,TGI,K-562 leukemia,> 100 µM
same,TGI,HS 578T breast,> 100 µM
same,TGI,MCF7 breast,> 100 µM
same,TGI,OVCAR-8 ovarian,> 100 µM
same,TGI,786-0 renal,> 100 µM
same,TGI,MOLT-4 leukemia,> 100 µM
same,TGI,SF-539 CNS,> 100 µM
same,TGI,T-47D breast,> 100 µM
same,TGI,IGROV1 ovarian,> 100 µM
same,TGI,SF-268 CNS,> 100 µM
same,TGI,CAKI-1 renal,> 100 µM
same,TGI,UACC-257 melanoma,> 100 µM
same,TGI,SNB-19 CNS,> 100 µM
same,TGI,NCI-H23 lung,> 100 µM
same,TGI,ACHN renal,> 100 µM
same,TGI,SN12C renal,> 100 µM
same,TGI,OVCAR-4 ovarian,> 100 µM
same,TGI,LOX IMVI melanoma,> 100 µM
same,TGI,SK-OV-3 ovarian,> 100 µM
same,TGI,SK-MEL-2 melanoma,> 100 µM
same,TGI,M14 melanoma,> 100 µM
same,TGI,HCT-116 colon,> 100 µM
same,TGI,PC-3 prostate,> 100 µM
same,TGI,BT-549 breast,> 100 µM
same,TGI,HCT-15 colon,> 100 µM
same,TGI,OVCAR-5 ovarian,> 100 µM
same,TGI,COLO 205 colon,> 100 µM
same,TGI,MDA-N,> 100 µM
same,TGI,A498 renal,> 100 µM
same,TGI,EKVX NSCLC,> 100 µM
same,TGI,U251 CNS,> 100 µM
same,TGI,HL-60(TB) leukemia,> 100 µM
same,TGI,UO-31 renal,> 100 µM
same,TGI,MDA-MB-231 breast,> 100 µM
same,TGI,MDA-MB-435,> 100 µM
